Test results from article PMC10913484, “Hydroxyhexylitaconic acids as potent IMP-type metallo-β-lactamase inhibitors for controlling carbapenem resistance in Enterobacterales” (Microbiology Spectrum, 2024).
Converted amounts (≈) assume the structure as drawn. Where two headings read alike, the source gives them in different places.

Experiments:
E. coli DH5α pBC-IMP-1 = assay: Susceptibility test (microdilution), transformant; assay type: cell-based
Protocol: (§1) Susceptibility testing, based on the microdilution method, was performed according to the guidelines of the Clinical and Laboratory Standards Institute ([36]).

[1] = tested on: E. cloacae NUBL-5 (IMP-1); assay: Susceptibility test, clinical isolate; assay type: cell-based; conditions: Enterobacter cloacae
Protocol: as §1

E. coli 426 (IMP-1) = assay: Susceptibility test, clinical isolate; assay type: cell-based; conditions: Escherichia coli
Protocol: as §1

E. coli 465 (IMP-1) = assay: Susceptibility test, clinical isolate; assay type: cell-based; conditions: Escherichia coli
Protocol: as §1

E. coli NUBL-22 (IMP-6) = assay: Susceptibility test, clinical isolate; assay type: cell-based; conditions: Escherichia coli
Protocol: as §1

E. coli NUBL-24 (IMP-1) = assay: Susceptibility test, clinical isolate; assay type: cell-based; conditions: E. coli NUBL-24 (IMP-1); for MIC: Escherichia coli
Protocol: as §1

[2] = tested on: K. oxytoca NUBL-827 (IMP-1); assay: Susceptibility test, clinical isolate; assay type: cell-based; conditions: Klebsiella oxytoca
Protocol: as §1

[3] = tested on: K. pneumoniae AR0034 (IMP-4); assay: Susceptibility test, clinical isolate; assay type: cell-based; conditions: Klebsiella pneumoniae, K. pneumoniae AR0034 (IMP-4)
Protocol: as §1

[4] = tested on: K. pneumoniae AR0076 (VIM-1); assay: Susceptibility test, clinical isolate; assay type: cell-based; conditions: Klebsiella pneumoniae
Protocol: as §1

[5] = tested on: K. pneumoniae MS5674 (NDM-1/VIM-1); assay: Susceptibility test, clinical isolate; assay type: cell-based; conditions: Klebsiella pneumoniae
Protocol: as §1

[6] = tested on: K. pneumoniae NUBL-23 (IMP-6); assay: Susceptibility test, clinical isolate; assay type: cell-based; conditions: Klebsiella pneumoniae
Protocol: as §1

[7] = tested on: K. pneumoniae NUBL-8 (IMP-1); assay: Susceptibility test, clinical isolate; assay type: cell-based; conditions: Klebsiella pneumoniae
Protocol: as §1

[8] = tested on: P. penneri E11-M475 (IMP-1); assay: Susceptibility test, clinical isolate; assay type: cell-based; conditions: Proteus penneri
Protocol: as §1

[9] = tested on: IMP-1-producing E. coli NUBL-24; assay: Time-killing assay; assay type: cell-based; conditions: MPM 1 µg/mL alone
Protocol: The initial density of IMP-1-producing E. coli NUBL-24 (MPM MIC, 8 µg/mL) was adjusted to approximately 5 × 10^6 colony-forming units (cfu)/mL. Either MPM (1 µg/mL) or 9-HHIA/10-HHIA (50 µg/mL) alone or a combination of the two was added to the bacterial solution, and then incubation was performed at 37°C. LB broth containing bacteria alone was used as a control. At 0, 2, 4, 8, and 12 h after adding the agents, an aliquot of the bacterial culture was removed, diluted, and spotted on LB agar plates to count the viable bacterial cells. The detection limit was set at 333 cfu/mL.

E. coli DH5α pBC-VIM-2 = assay: Susceptibility test (microdilution), transformant; assay type: cell-based
Protocol: as §1

IMP-1 [10] = target: T1, IMP-1 (Serratia marcescens, UniProt P52699); assay type: biochemical; conditions: IMP-1 with agent (5 mM stock), dialysis
T1 construct: made in house
T1 sequence (P52699 19-246, looked up, species assumed): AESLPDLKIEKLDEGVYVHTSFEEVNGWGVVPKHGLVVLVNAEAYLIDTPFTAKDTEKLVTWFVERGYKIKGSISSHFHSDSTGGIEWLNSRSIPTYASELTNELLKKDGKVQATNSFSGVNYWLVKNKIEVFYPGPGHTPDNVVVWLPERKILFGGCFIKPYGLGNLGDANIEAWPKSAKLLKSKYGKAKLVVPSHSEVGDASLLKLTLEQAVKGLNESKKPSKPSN
Protocol: A total of 5 µL of IMP-1 (100 µM) and 2 µL of EDTA (5 mM) or HHIA (5 mM) were mixed in 100 µL of 20 mM HEPES buffer (pH 7.5) pretreated with Chelex 100 resin (Bio-Rad) and incubated on ice for 30 min. The samples were dialyzed against ultrapure water at 4°C for 6 h using Slide-A-Lyzer Dialysis Cassettes (cutoff, 3.5 K) (Thermo Fisher Scientific) and treated with proteinase K (FUJIFILM Wako Pure Chemical Corporation) at 37°C for 1 h. The zinc concentration in the samples was determined using a Zinc Assay Kit (MG Metallogenics).

IMP-1 [11] = target: T1, IMP-1; assay type: binding; conditions: DSF; control protein 52.5°C
Protocol: The DSF assay was performed using the Protein Thermal Shift Dye Kit (Thermo Fisher Scientific) and StepOnePlus Real-Time PCR Systems (Applied Biosystems) as follows: 2 µL of IMP-1 enzyme (100 µM), 1 µL of EDTA or HHIA solution (5 mM), 2.5 µL of diluted Protein Thermal Shift Dye (32×), 5 µL of Protein Thermal Shift buffer, and 9.5 µL of water were mixed in a test tube and incubated for 15 min at 4°C. Four replicates of each sample were performed. The fluorescence was monitored at 0.7°C increments from 4°C to 99°C. The relative fluorescence units were fitted with the Boltzmann equation using the TSA-CRAFT software to determine the melting point (Tm) ([47]).

IMP-1 [12] = target: T1, IMP-1; assay: In vitro inhibition assay (IPM hydrolysis); assay type: biochemical; conditions: read-out: IC50 for IMP-1
Protocol: MBLs were incubated with HHIAs in 20 mM HEPES buffer (pH 7.5) containing 200 mM NaCl and 50 µg/mL BSA at 30°C for 5 min. IPM was added at a concentration of 100 µM, and the rate of IPM hydrolysis was monitored at 297 nm. The initial velocity (v0) rates were plotted against HHIA’s logarithmic concentrations, and the data were fitted to a four-parameter variable slope to obtain the half-maximal inhibitor concentration (IC50) values using GraphPad Prism 9 software (GraphPad Software). The inhibition constant (Ki) was determined as follows: v0 was measured after varying the concentrations of IPM and HHIAs, and inverse v0 (1/v0) was plotted against the inverse IPM concentration [1/(IPM)]. Lineweaver–Burk plots were created to obtain Ki values under the competitive inhibition model using the SigmaPlot 14 suite (Hulinks).

E. coli DH5α pBC-NDM-1 = assay: Susceptibility test (microdilution), transformant; assay type: cell-based; conditions: E. coli DH5α pBC-NDM-1
Protocol: as §1

E. coli DH5α pCL-SMB-1 = assay: Susceptibility test (microdilution), transformant; assay type: cell-based; conditions: E. coli DH5α pCL-SMB-1
Protocol: as §1

[13] = MPM alone (Control), read-out: MPM MIC
[14] = IPM alone (Control), read-out: IPM MIC

Question: Which results are given for `C[C@@H](O)[C@H]1C(=O)N2C(C(=O)O)=C(S[C@@H]3CN[C@H](C(=O)N(C)C)C3)[C@H](C)[C@H]12` [MPM, meropenem, reference compound]?
Answer: MIC (E. coli DH5α pBC-IMP-1; Escherichia coli, read-out: MPM MIC, MPM alone (Control)): 1 µg/mL (≈ 2.61 µM); MPM MIC (E. coli DH5α pBC-IMP-1; MPM alone (Control)): 1 µg/mL; MIC [1, 13]: 16 µg/mL (≈ 41.7 µM); MIC (E. coli 426 (IMP-1); [13]): 16 µg/mL (≈ 41.7 µM); MIC (E. coli 465 (IMP-1); [13]): 32 µg/mL (≈ 83.4 µM); MIC (E. coli NUBL-22 (IMP-6); [13]): 32 µg/mL (≈ 83.4 µM); MIC (E. coli NUBL-24 (IMP-1); [13]): 8 µg/mL (≈ 20.9 µM); MPM MIC (E. coli NUBL-24 (IMP-1); MPM alone (Control)): 8 µg/mL; MIC [2, 13]: 32 µg/mL (≈ 83.4 µM); MIC [3, 13]: 8 µg/mL (≈ 20.9 µM); MIC [4, 13]: 32 µg/mL (≈ 83.4 µM); MIC [5, 13]: > 64 µg/mL; MIC [6, 13]: 64 µg/mL (≈ 167 µM); MIC [7, 13]: 16 µg/mL (≈ 41.7 µM); MIC [8, 13]: > 64 µg/mL; Time-kill: MPM alone [9]: regrew close to the control level at 12 h

Question: `CC(C)(O/N=C(\C(=O)N[C@@H]1C(=O)N2C(C(=O)[O-])=C(C[n+]3ccccc3)CS[C@H]12)c1csc(N)n1)C(=O)O` [CAZ, ceftazidime] was tested. Which MIC (E. coli DH5α pBC-VIM-2; Escherichia coli, read-out: CAZ MIC, CAZ alone (Control)) did it give?
Answer: The MIC was 4 to 8 µg/mL (≈ 7.32 to 14.6 µM).

Question: How did the MIC [1, 14] turn out when `C[C@@H](O)[C@H]1C(=O)N2C(C(=O)O)=C(SCCN=CN)C[C@H]12` [IPM, imipenem, reference compound] was run?
Answer: The MIC was 8 µg/mL (≈ 26.7 µM).

Question: What about the MIC (E. coli 426 (IMP-1); [14]) of the same compound?
Answer: The MIC was 8 µg/mL (≈ 26.7 µM).

Question: What about the MIC (E. coli 465 (IMP-1); [14]) of the same compound?
Answer: The MIC was 32 µg/mL (≈ 107 µM).

Question: What about the MIC (E. coli NUBL-22 (IMP-6); [14]) of the same compound?
Answer: Its MIC is 2 µg/mL (≈ 6.68 µM).

Question: And the MIC (E. coli NUBL-24 (IMP-1); [14])?
Answer: The MIC was 8 µg/mL (≈ 26.7 µM).

Question: What about the MIC [2, 14] of the same compound?
Answer: The MIC was 16 µg/mL (≈ 53.4 µM).

Question: And the MIC [3, 14]?
Answer: The MIC was 4 µg/mL (≈ 13.4 µM).

Question: What about the MIC [4, 14] of the same compound?
Answer: The MIC was 32 µg/mL (≈ 107 µM).

Question: What about the MIC [5, 14] of the same compound?
Answer: Its MIC is 32 µg/mL (≈ 107 µM).

Question: And the MIC [6, 14]?
Answer: The MIC was 1 µg/mL (≈ 3.34 µM).

Question: What about the MIC [7, 14] of the same compound?
Answer: Its MIC is 4 µg/mL (≈ 13.4 µM).

Question: What about the MIC [8, 14] of the same compound?
Answer: Its MIC is greater than 64 µg/mL.

Question: For `O=C(O)CN(CCN(CC(=O)O)CC(=O)O)CC(=O)O` [EDTA, reference compound], which “Zinc ions in IMP-1 after treatment” value (IMP-1 [10]) is on record?
Answer: The value was “completely lost”.

Question: What about the “Melting temperature (Tm) of treated IMP-1” value (IMP-1 [11]) of the same compound?
Answer: Its value is 43.4 °C.

Question: Which IC50 (IMP-1 [12]) does the source give for `C=C(CC(=O)O)C(=O)O` [Itaconic acid, itaconic acid] here?
Answer: Its IC50 is greater than 1000 µM.

Question: What about the “MPM MIC” value (E. coli DH5α pBC-IMP-1; +agent 6.25 μg/mL) of the same compound?
Answer: The value was 1 µg/mL.

Question: And the “MPM MIC” value (E. coli DH5α pBC-IMP-1; +agent 25 μg/mL)?
Answer: The value was 1 µg/mL.

Question: What about the “MPM MIC” value (E. coli DH5α pBC-IMP-1; +agent 100 μg/mL) of the same compound?
Answer: The value was 1 µg/mL.

Question: What about the “MPM MIC” value (E. coli DH5α pBC-NDM-1; +agent 6.25 μg/mL) of the same compound?
Answer: The value was greater than 64 µg/mL.

Question: And the “MPM MIC” value (E. coli DH5α pBC-NDM-1; +agent 25 μg/mL)?
Answer: The value was greater than 64 µg/mL.

Question: And the “MPM MIC” value (E. coli DH5α pBC-NDM-1; +agent 100 μg/mL)?
Answer: Its value is greater than 64 µg/mL.

Question: And the “CAZ MIC” value (E. coli DH5α pBC-VIM-2; +agent 6.25 μg/mL)?
Answer: The value was 8 µg/mL.

Question: And the “CAZ MIC” value (E. coli DH5α pBC-VIM-2; +agent 25 μg/mL)?
Answer: Its value is 8 µg/mL.

Question: What about the “CAZ MIC” value (E. coli DH5α pBC-VIM-2; +agent 100 μg/mL) of the same compound?
Answer: Its value is 8 µg/mL.

Question: What about the “MPM MIC” value (E. coli DH5α pCL-SMB-1; +agent 6.25 μg/mL) of the same compound?
Answer: Its value is 32 µg/mL.

Question: What about the “MPM MIC” value (E. coli DH5α pCL-SMB-1; +agent 25 μg/mL) of the same compound?
Answer: Its value is 32 µg/mL.

Question: And the “MPM MIC” value (E. coli DH5α pCL-SMB-1; +agent 100 μg/mL)?
Answer: Its value is 32 µg/mL.
